Reference: US20090215783A1, “COMPOSITION FOR INDUCTION OR INHIBITION OF STEM CELL DIFFERENTIATION” (CHOONGWAE PHARMA CORPORATION, priority 2006, published 2009)
pIC50: −log10 of the molar value.

Experiments:
[1] = system: human bone marrow derived-mesenchymal stem cells (hBMMSC); test: Osteogenesis modulating activity assay by test compound alone (ALP activity); format: cell-based; details: for ALP level enhanced: 20 μM, treated alone to hBMMSC; for fold induction at 20 µM: Homo sapiens, 168 h, hBMMSC, 20 μM test compound alone, six to seven days, read-out: Osteogenesis: fold change of ALP activity compared with DMSO control
In short: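 hBMMSC from normal subjects were treated with compound at 20 μM final (0.01% DMSO) at 37° C, 5% CO2, with medium and compound renewed every two days. Alkaline phosphatase activity in cell lysates was measured colorimetrically after six to seven days.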

[2] = system: human bone marrow derived-mesenchymal stem cells (hBMMSC); test: Osteogenesis modulating activity with osteogenic induction cocktails (ALP activity, mineralization); format: cell-based; details: for mineralization of hBMMSC: co-treated with osteogenic induction cocktails (OIC); for stimulation of mineralization at various concentrations: even at the 0.5 μM
Experimental: Cell culture: Human bone marrow derived-mesenchymal stem cells (hBMMSC) were isolated from normal subjects.
Osteogenesis modulating activity of test compounds with induction media: hBMMSC were culture with culture media containing osteogenic induction cocktails (OIC, 0.1 μM dexamethasone, 50 μM ascorbate-2-phosphate, 10 mM b-glycerophosphate). Four to five days after incubation, Alkaline phosphatase (ALP) activity of cell lysates were measured by colorimetry. For the determination of mineralization within the cells, Von Kossa staining or Alizarin Red S assay was performed 10-14 days after incubation.

hBMMSC = test: Cell proliferation assay (CellTiter 96) in hBMMSC; format: cell-based, human; details: 20 μM, treated alone
Experimental: Cell proliferation assay: To investigate the cytotoxicity of the test compounds for hBMMSC, hBMMSC were exposed to the test compounds for 6-7 days at the same condition above (method b and c). Cell proliferation was assessed using CellTiter 96 Aqueous One Solution (Promega, #G3581). Absorbance at 490 nm of each well was determined with a microplate reader (Molecular Device) and % growth inhibition was calculated compared with control.

ALP mRNA in hBMMSC = test: RT-PCR of alkaline phosphatase (ALP) mRNA in hBMMSC; format: cell-based, human; details: compound treatment for 4 days
Experimental: RT-PCR. To analyze the mRNA levels for Alkaline phosphatase (ALP), total RNA was isolated using Trizol (Invitrogen-GIBCO-BRL, Baltimore, Md.) from hBMMSC with or without compound treatment for 4 days. 2 μg RNA was reverse transcribed in a total volume of 20 μl with random hexamer (50 ng), and using the Superscript II reverse transcription system (Invitrogen-GIBCO-BRL), according to manufacturer's guidelines. PCR was carried out in a 50 μl volume containing 5 μl cDNA, 100 pmol primers, 100 μM dNTPs, 1×Taq buffer and 1.5 mM MgCl2. Reaction mixtures were heated to 80° C. for 10 min, after which Taq was added. cDNAs were amplified for 25 ([…]) or 15 (GAPDH) cycles. One round of amplification consisted of 1 min at 94° C., 2 min at 60° C., and 2 min at 72° C., with a final extension time of 10 min at 72° C. The PCR products were resolved and visualized by electrophoresis in a 2% gel, stained with ethidium bromide. ALP PCR primers used were, 5′-[…]-3′ and 5′-[…]-3′. Primer pairs for GAPDH were 5′-[…]-3′ and 5′-[…]-3′. A housekeeping gene, GADPH was used as a control.

[3] = system: Mouse embryonic stem (ES) cells, TC1; test: Cardiomyogenesis modulating activity assay (alpha-MHC promoter EGFP, embryoid bodies, FACS/fluorescence microscopy); format: cell-based; details: for Cardiomyogenesis: fold change of EGFP expression level compared with DMSO control: embryoid bodies treated for 5 days
In short: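 Mouse TC1 ES cells carrying an alpha-MHC promoter-EGFP reporter were formed into embryoid bodies (~600 cells, 2 days hanging drop, 2 days suspension), plated, then exposed to compounds (final 0.05% DMSO) for 5 days. Cardiomyogenesis assessed by EGFP via FACS after trypsin dissociation, fluorescence microscopy, and daily counts of beating EBs.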

[4] = system: ANP and Nkx2.5 mRNA in the ES cells; test: Real time RT-PCR of cardiomyogenesis marker genes ANP and Nkx2.5; format: cell-based, mouse; details: ES cells treated for 7 and 10 days
Experimental: d. Real time RT-PCR: To analyze the mRNA levels of cardiomyogenesis marker genes, Atrial Natriuretic Peptide (ANP) and Nk×2.5, total RNA was isolated using Trizol (Invitrogen-GIBCO-BRL, Baltimore, Md., USA) from stem cells with or without Compound E treatment for 7 days and 10 days. Relative expression level of each mRNA was measured.

[5] = system: β-catenin/TCF transcription; test: TopFlash reporter gene assay in SW480 cells; format: cell-based; details: Homo sapiens; SW480 cells transfected with β-catenin/TCF luciferase construct; 24 hours treatment; dual luciferase assay; read-out: IC50, inhibition of β-catenin/TCF reporter gene construct
Experimental: FIG. 2. Compound A (Serial No. 111 in Table 2) inhibits β-catenin/TCF transcription. […] SW480 cells (10^5) were transfected with β-catenin/TCF luciferase construct. Cells were treated with Compound A (1-50 μM). 24 hours after the treatment lysates were prepared and subjected to dual luciferase assay.
FIG. 3. Compound B (Serial No. 10 in Table 2) inhibits β-catenin/TCF transcription. […] SW480 cells ([…]) were transfected with β-catenin/TCF luciferase construct. Cells were treated with Compound B (1-50 μM). 24 hours after treatment lysates were prepared and subjected to dual luciferase assay.
SW480 cells were transfected using Superfect™ transfection reagent (Qiagen, 301307). Cells were trypsinized briefly 1 day before transfection and plated on 6 well plate (5×10^5 cells/well) so that they were 50-80% confluent on the day of transfection.
Four microgram (TOPFlash) and one microgram (pRL-null) of DNAs were diluted in […] of serum-free medium, and 30 μl of Superfect™ transfection reagent was added. The DNA-Superfect mixture was incubated at room temperature for 15 min, and then, 1 ml of 10% FBS DMEM was added to this complex for an additional 3 hours of incubation. While complexes were forming, cells were washed with PBS twice without antibiotics.
The DNA-Superfect™ transfection reagent complexes were applied to the cells before incubating at 37° C. at 5% CO2 for 3 hours. […]

Row | Structure (SMILES) | ALP level enhanced [1] | fold induction at 20 µM [1] | mineralization of hBMMSC [2] | stimulation of mineralization at various concentrations [2] | cell proliferation (hBMMSC) | ALP mRNA expression (ALP mRNA in hBMMSC) | Cardiomyogenesis: fold change of EGFP expression level compared with DMSO control ([3]; FACS) | also measured
1 | O=C1C(Cc2ccc(OCc3ccccc3)cc2)N2C(=O)CN(Cc3ccc(F)cc3)N(C(=O)NCc3ccccc3)C2CN1Cc1cccc(C(F)(F)F)c1 (centres unmarked) [#66] | 202% | 2.02 | strongly induced mineralization | osteogenesis inducing activity | 83% | increased | 3.13 fold | 
2 | O=C1[C@H](Cc2ccc(F)c(F)c2)N2C(=O)CN(Cc3ccc(F)cc3)N(C(=O)NCc3ccccc3)[C@H]2CN1Cc1cccc(C(F)(F)F)c1 [#71] |  |  |  |  |  |  | 4.63 fold | expression of fluorescence under the fluorescence microscope compared with DMSO control ([3]; 10 μM, Day 5): significantly enhanced; fold increase of alpha-MHC positive cells compared to DMSO treated EB ([3]; 10 μM, FACS): 4.6 fold; cell population expressing fluorescence (alpha-MHC positive) ([3]; 10 μM, FACS analysis of embryoid bodies): 2.50%; cardiomyogenesis differentiation promoting effect at low concentration ([3]; even at the 0.3 μM): distinctive; cardiomyogenesis differentiation promoting activity (EGFP expression), concentration dependence ([3]; various concentrations): concentration-dependent; expression level of ANP mRNA compared with DMSO control [4]: strongly increased; expression level of Nkx2.5 mRNA compared with DMSO control [4]: strongly increased
3 | O=C1[C@H](Cc2ccc(Cl)cc2)N2C(=O)CN(Cc3ccccc3)N(C(=O)NCc3ccccc3)[C@H]2CN1CCc1ccc(Cl)cc1 [#82] | 200% | 2 | strongly induced mineralization | osteogenesis inducing activity | 127% | increased | 0.97 fold | 
4 | NC(=O)CC1C(=O)N(CCSCc2ccccc2)CC2N1C(=O)CN(Cc1ccc(F)cc1)N2C(=O)NCc1ccccc1 (centres unmarked) [#110] |  | 0.63 |  |  |  |  | 1.18 fold | 
5 | CN1CC(=S)N2[C@H](Cc3ccc(O)cc3)C(=O)N(Cc3cccc4ccccc34)C[C@H]2N1C(=O)NCc1ccccc1 [#111] |  |  |  |  |  |  | 0.10 fold | pIC50 [5]: 5.84
